In ChEMBL document CHEMBL3885881, “DrugMatrix”:

Species: Rattus norvegicus
Experiment: DrugMatrix - Regimen: Daily Repeat
Type: toxicity, organism-based, Sprague-Dawley
Design: regimen Daily Repeat, gender Male, age 6-8 weeks
Settings: in vivo, sc, route subcutaneous, […]; for ABSOLUTE BASOPHIL / ABSOLUTE EOSINOPHIL / ABSOLUTE LYMPHOCYTE / ABSOLUTE MONOCYTE / ABSOLUTE SEGMENTED NEUTROPHIL / BASOPHIL / EOSINOPHIL / ERYTHROCYTE COUNT / HEMATOCRIT / HEMOGLOBIN / LEUKOCYTE COUNT / LYMPHOCYTE / MEAN CORPUSCULAR HEMOGLOBIN / MEAN CORPUSCULAR HEMOGLOBIN CONCENTRATION / MEAN CORPUSCULAR VOLUME / MONOCYTE / NEUTROPHIL / NUCLEATED RED BLOOD CELLS / PLATELET COUNT: tissue Blood; for ALANINE AMINOTRANSFERASE / ALBUMIN / ALKALINE PHOSPHATASE / ASPARTATE AMINOTRANSFERASE / BLOOD UREA NITROGEN / CARBON DIOXIDE / CHLORIDE / CHOLESTEROL / CREATINE PHOSPHOKINASE / CREATININE / GLUCOSE / LACTATE DEHYDROGENASE / LIPASE / PHOSPHORUS / POTASSIUM / SODIUM / TOTAL BILIRUBIN / TOTAL PROTEIN / URIC ACID: tissue Plasma
[1] = 24 mg/kg, 72 h, dose level High, time 3 day
[2] = 24 mg/kg, 120 h, dose level High, time 5 day
[3] = 72 h, dose 9.6 mg/Kg, dose level Low, time 3 day
[4] = 120 h, dose 9.6 mg/Kg, dose level Low, time 5 day

## CCCCNc1ccc(C(=O)OCCN(C)C)cc1 [TETRACAINE]
[1]
  ABSOLUTE BASOPHIL: 0 CELLS/uL
  ABSOLUTE EOSINOPHIL: 116 CELLS/uL
  ABSOLUTE LYMPHOCYTE: 16844.33 CELLS/uL
  ABSOLUTE MONOCYTE: 146.67 CELLS/uL
  ABSOLUTE SEGMENTED NEUTROPHIL: 1826.33 CELLS/uL
  BASOPHIL: 0%
  EOSINOPHIL: 0.67%
  ERYTHROCYTE COUNT: 5.64 x10E6/uL
  HEMATOCRIT: 36.43%
  HEMOGLOBIN: 14.5 G/DL
  LEUKOCYTE COUNT: 18.93 x10E3/uL
  LYMPHOCYTE: 89%
  MEAN CORPUSCULAR HEMOGLOBIN: 25.67 pg
  MEAN CORPUSCULAR HEMOGLOBIN CONCENTRATION: 39.83 G/DL
  MEAN CORPUSCULAR VOLUME: 64.53 fL
  MONOCYTE: 0.67%
  NEUTROPHIL: 9.67%
  NUCLEATED RED BLOOD CELLS: 0.33 /100WBC
  PLATELET COUNT: 1264.67 x10E3/uL
  ALANINE AMINOTRANSFERASE: 68.67 u/L
  ALBUMIN: 4.23 G/DL
  ALKALINE PHOSPHATASE: 328 u/L
  ASPARTATE AMINOTRANSFERASE: 81 u/L
  BLOOD UREA NITROGEN: 17 mg/dL
  CARBON DIOXIDE: 22.67 mmol/L
  CHLORIDE: 104 MEQ/L
  CHOLESTEROL: 77 mg/dL
  CREATINE PHOSPHOKINASE: 175.67 u/L
  CREATININE: 0.27 mg/dL
  GLUCOSE: 177.33 mg/dL
  LACTATE DEHYDROGENASE: 88.67 u/L
  LIPASE: 9.67 u/L
  PHOSPHORUS: 12.97 mg/dL
  POTASSIUM: 6.72 MEQ/L
  SODIUM: 147.97 MEQ/L
  TOTAL BILIRUBIN: 0.27 mg/dL
  TOTAL PROTEIN: 6.03 G/DL
  URIC ACID: 1.53 mg/dL
[2]
  ABSOLUTE BASOPHIL: 0 CELLS/uL
  ABSOLUTE EOSINOPHIL: 49.33 CELLS/uL
  ABSOLUTE LYMPHOCYTE: 12917.33 CELLS/uL
  ABSOLUTE MONOCYTE: 97.33 CELLS/uL
  ABSOLUTE SEGMENTED NEUTROPHIL: 1669.33 CELLS/uL
  BASOPHIL: 0%
  EOSINOPHIL: 0.33%
  ERYTHROCYTE COUNT: 5.38 x10E6/uL
  HEMATOCRIT: 33.97%
  HEMOGLOBIN: 13.67 G/DL
  LEUKOCYTE COUNT: 14.73 x10E3/uL
  LYMPHOCYTE: 87.67%
  MEAN CORPUSCULAR HEMOGLOBIN: 25.47 pg
  MEAN CORPUSCULAR HEMOGLOBIN CONCENTRATION: 40.3 G/DL
  MEAN CORPUSCULAR VOLUME: 63.2 fL
  MONOCYTE: 0.67%
  NEUTROPHIL: 11.33%
  NUCLEATED RED BLOOD CELLS: 0.33 /100WBC
  PLATELET COUNT: 1410.33 x10E3/uL
  ALANINE AMINOTRANSFERASE: 58.33 u/L
  ALBUMIN: 3.93 G/DL
  ALKALINE PHOSPHATASE: 329 u/L
  ASPARTATE AMINOTRANSFERASE: 92.67 u/L
  BLOOD UREA NITROGEN: 14.67 mg/dL
  CARBON DIOXIDE: 23 mmol/L
  CHLORIDE: 104.67 MEQ/L
  CHOLESTEROL: 71 mg/dL
  CREATINE PHOSPHOKINASE: 172 u/L
  CREATININE: 0.22 mg/dL
  GLUCOSE: 160.67 mg/dL
  LACTATE DEHYDROGENASE: 83.67 u/L
  LIPASE: 9.67 u/L
  PHOSPHORUS: 12.47 mg/dL
  POTASSIUM: 6.53 MEQ/L
  SODIUM: 146.2 MEQ/L
  TOTAL BILIRUBIN: 0.23 mg/dL
  TOTAL PROTEIN: 5.73 G/DL
  URIC ACID: 1.73 mg/dL
[3]
  ABSOLUTE BASOPHIL: 0 CELLS/uL
  ABSOLUTE EOSINOPHIL: 226.67 CELLS/uL
  ABSOLUTE LYMPHOCYTE: 14925.33 CELLS/uL
  ABSOLUTE MONOCYTE: 512.67 CELLS/uL
  ABSOLUTE SEGMENTED NEUTROPHIL: 768.67 CELLS/uL
  BASOPHIL: 0%
  EOSINOPHIL: 1.67%
  ERYTHROCYTE COUNT: 5.36 x10E6/uL
  HEMATOCRIT: 34.5%
  HEMOGLOBIN: 13.5 G/DL
  LEUKOCYTE COUNT: 16.43 x10E3/uL
  LYMPHOCYTE: 90.67%
  MEAN CORPUSCULAR HEMOGLOBIN: 25.17 pg
  MEAN CORPUSCULAR HEMOGLOBIN CONCENTRATION: 39.17 G/DL
  MEAN CORPUSCULAR VOLUME: 64.4 fL
  MONOCYTE: 2.33%
  NEUTROPHIL: 5.33%
  NUCLEATED RED BLOOD CELLS: 0.33 /100WBC
  PLATELET COUNT: 1368.67 x10E3/uL
  ALANINE AMINOTRANSFERASE: 52.33 u/L
  ALBUMIN: 4.1 G/DL
  ALKALINE PHOSPHATASE: 338.33 u/L
  ASPARTATE AMINOTRANSFERASE: 87.67 u/L
  BLOOD UREA NITROGEN: 15 mg/dL
  CARBON DIOXIDE: 22.67 mmol/L
  CHLORIDE: 104.67 MEQ/L
  CHOLESTEROL: 79.67 mg/dL
  CREATINE PHOSPHOKINASE: 530.33 u/L
  CREATININE: 0.16 mg/dL
  GLUCOSE: 187 mg/dL
  LACTATE DEHYDROGENASE: 122.67 u/L
  LIPASE: 9.33 u/L
  PHOSPHORUS: 13.8 mg/dL
  POTASSIUM: 5.89 MEQ/L
  SODIUM: 147.2 MEQ/L
  TOTAL BILIRUBIN: 0.2 mg/dL
  TOTAL PROTEIN: 5.73 G/DL
  URIC ACID: 1.9 mg/dL
[4]
  ABSOLUTE BASOPHIL: 0 CELLS/uL
  ABSOLUTE EOSINOPHIL: 0 CELLS/uL
  ABSOLUTE LYMPHOCYTE: 14217 CELLS/uL
  ABSOLUTE MONOCYTE: 0 CELLS/uL
  ABSOLUTE SEGMENTED NEUTROPHIL: 2349.67 CELLS/uL
  BASOPHIL: 0%
  EOSINOPHIL: 0%
  ERYTHROCYTE COUNT: 5.59 x10E6/uL
  HEMATOCRIT: 35.87%
  HEMOGLOBIN: 14.33 G/DL
  LEUKOCYTE COUNT: 16.57 x10E3/uL
  LYMPHOCYTE: 85.67%
  MEAN CORPUSCULAR HEMOGLOBIN: 25.6 pg
  MEAN CORPUSCULAR HEMOGLOBIN CONCENTRATION: 39.97 G/DL
  MEAN CORPUSCULAR VOLUME: 64.13 fL
  MONOCYTE: 0%
  NEUTROPHIL: 14.33%
  NUCLEATED RED BLOOD CELLS: 0.33 /100WBC
  PLATELET COUNT: 1151 x10E3/uL
  ALANINE AMINOTRANSFERASE: 58 u/L
  ALBUMIN: 4.1 G/DL
  ALKALINE PHOSPHATASE: 278.67 u/L
  ASPARTATE AMINOTRANSFERASE: 76.33 u/L
  BLOOD UREA NITROGEN: 17.67 mg/dL
  CARBON DIOXIDE: 23.33 mmol/L
  CHLORIDE: 103.67 MEQ/L
  CHOLESTEROL: 76.33 mg/dL
  CREATINE PHOSPHOKINASE: 262.33 u/L
  CREATININE: 0.16 mg/dL
  GLUCOSE: 153.67 mg/dL
  LACTATE DEHYDROGENASE: 205 u/L
  LIPASE: 9.67 u/L
  PHOSPHORUS: 12.83 mg/dL
  POTASSIUM: 6.7 MEQ/L
  SODIUM: 147.8 MEQ/L
  TOTAL BILIRUBIN: 0.23 mg/dL
  TOTAL PROTEIN: 5.73 G/DL
  URIC ACID: 1.53 mg/dL
